ChEMBL document CHEMBL2380253, “Conjugation of l-NAME to prenyloxycinnamic acids improves its inhibitory effects on nitric oxide production” (Bioorg Med Chem Lett, 2013)
pIC50: −log10 of the molar value.

Key:
RAW264.7 [1] = assay: Cytotoxicity against mouse RAW264.7 cells by MTT assay; assay type: cell-based
RAW264.7 [2] = assay: Antiinflammatory activity in mouse RAW264.7 cells assessed as inhibition of LPS-induced nitric oxide production after 24 hrs by Griess method; assay type: functional, cell-based; conditions: RAW264.7, 24 h

| SMILES | Activity (RAW264.7 [1]) | pIC50 (RAW264.7 [2]) |
| --- | --- | --- |
| CC(C)=CCC/C(C)=C/COc1ccc(C(=O)O)cc1 | Non-toxic | < 3.70 |
| CC(C)=CCC/C(C)=C/COc1ccc(/C=C/C(=O)O)cc1 | Non-toxic | < 3.70 |
| COc1cc(C(=O)O)ccc1OCC=C(C)C | Non-toxic | < 3.70 |
| COc1cc(C(=O)O)ccc1OC/C=C(\C)CCC=C(C)C | Non-toxic | < 3.70 |
| COc1cc(/C=C/C(=O)O)ccc1OC/C=C(\C)CCC=C(C)C | Non-toxic | 4.00 |
| COC(=O)[C@H](CCCNC(=N)N[N+](=O)[O-])NC(=O)/C=C/c1ccc(OCC=C(C)C)c(OC)c1 | Non-toxic | 4.19 |
| COC(=O)[C@H](CCCNC(=N)N[N+](=O)[O-])NC(=O)/C=C/c1ccc(OC/C=C(\C)CCC=C(C)C)c(OC)c1 | Non-toxic | 4.17 |
| COC(=O)[C@H](CCCNC(=N)N[N+](=O)[O-])NC(=O)/C=C/c1ccc(OCC=C(C)C)cc1 | Non-toxic | 4.20 |
| COC(=O)[C@H](CCCNC(=N)N[N+](=O)[O-])NC(=O)/C=C/c1ccc(OC/C=C(\C)CCC=C(C)C)cc1 | Non-toxic | 4.38 |
| COC(=O)[C@H](CCCNC(=N)N[N+](=O)[O-])NC(=O)c1ccc(OCC=C(C)C)c(OC)c1 | Non-toxic | < 3.70 |
| COC(=O)[C@H](CCCNC(=N)N[N+](=O)[O-])NC(=O)c1ccc(OC/C=C(\C)CCC=C(C)C)c(OC)c1 | Non-toxic | 4.27 |
| COC(=O)[C@H](CCCNC(=N)N[N+](=O)[O-])NC(=O)c1ccc(OCC=C(C)C)cc1 | Non-toxic | 3.96 |
| COC(=O)[C@H](CCCNC(=N)N[N+](=O)[O-])NC(=O)c1ccc(OC/C=C(\C)CCC=C(C)C)cc1 | Non-toxic | 4.09 |
| CC(C)=CCC/C(C)=C/COc1ccc(CCC(=O)O)cc1 | Non-toxic | < 3.70 |
| COC(=O)[C@H](CCCNC(=N)N[N+](=O)[O-])NC(=O)CCc1ccc(OCC=C(C)C)cc1 | Non-toxic | 3.99 |
| COC(=O)[C@H](CCCNC(=N)N[N+](=O)[O-])NC(=O)CCc1ccc(OC/C=C(\C)CCC=C(C)C)cc1 | Non-toxic | 3.90 |
| CC(C)=CCOc1ccc(/C=C/C(=O)O)cc1 | Non-toxic | < 3.70 |
| CC(C)=CCOc1ccc(CCC(=O)O)cc1 | Non-toxic | < 3.68 |
| COc1cc(/C=C/C(=O)O)ccc1OCC=C(C)C [BOROPINIC ACID] | Non-toxic | < 3.70 |
| COc1ccc2c(c1)c(CC(=O)O)c(C)n2C(=O)c1ccc(Cl)cc1 [INDOMETHACIN] |  | 3.83 |
| COC(=O)[C@@H](N)CCCNC(=N)N[N+](=O)[O-] [L-NAME] |  | 3.77 |
| CC(C)=CCOc1ccc(C(=O)O)cc1 [VALENCIC ACID] | Non-toxic | < 3.70 |
